From patent US20230104283A1, “JNK INHIBITOR, AND PHARMACEUTICAL COMPOSITION AND USE THEREOF” (WUHAN LL SCIENCE AND TECHNOLOGY DEVELOPMENT CO. , LTD, priority 2019, published 2023)

How the values were obtained:
[1] = system: RAW264.7 phosphorylated c-Jun (Ser63); test: RAW264.7 phosphorylated c-Jun whole cell assay; format: cell-based; settings: Mus musculus; cytological assay, activity level; lipopolysaccharide-activated RAW264.7 cells, phospho-c-Jun (Ser63) ELISA
Protocol: RAW264.7 (ATCC TIB-71) cells were purchased from BeNa Culture Collection and maintained in a high-glucose DMEM medium (Gibco) containing 10% fetal bovine serum (Gibco) and 1% penicillin-streptomycin (Gibco). All cells were cultured at 37° C. in 95% air and 5% CO2. All cells were seeded into 120 μL of cell culture medium in a 96-well plate at a density of 2×10^5 cells per well. The stock solution of compound (15 mM) was serially diluted in DMSO (Sigma) and further diluted in growth medium, and it was then added at 15 μL per well as a 10× concentrated solution, well mixed with the cells and incubated with the cells for 30 min. Concentration of the compound vehicle (DMSO) in each well was 0.2%. After incubation for 30 min, the cells were activated with […] lipopolysaccharide (Sigma). Lipopolysaccharide was added to the growth medium as a 10× concentrated solution at 15 μL per well. The cell plate was incubated for 1 h, and then all the medium was removed. The level of C-Jun protein with phosphorylation of serine at site 63 was measured using the whole cell lysate kit-phosphorylated C-Jun assay (PathScan® Phospho-c-Jun (Ser63) Sandwich ELISA Kit) (CST, 7145C) according to the manufacturer's instructions.

[2] = biological target: T1, JNK1 kinase (Homo sapiens, UniProt P45983); test: JNK1 activity screening (time-resolved fluorometric HTRF kinase assay); format: biochemical; settings: enzymatic assay, activity level
T1 construct: purchased Carna Biosciences 04-163
Protocol: JNK1 activity screening. JNK1 activity was detected using a 96-well (Cisbio, 66PL96025) time-resolved fluorometric assay. The JNK1 assay was conducted in the following assay buffer: 10 mM MgCl2 (Sigma, M1028), 1 mM MnCl2 (Sigma, M1787), 1 mM DTT (Sigma, D0632) and 1× Enzymatic buffer/kinase (Cisbio, 62EZBFDC). By using the assay buffer, 3 μL of 0.1 ng/μL JNK1 kinase (Carna Biosciences, 04-163) was added to a 96-well microplate, and then 4 μL of a compound diluted appropriately (with a DMSO content of 2.5%) was added. The resulting mixture was incubated at room temperature for 0.5 h. To start the reaction, the assay buffer was used to mix 0.003 μM ATP (Aladdin, A7699) and 30 μM substrate ATF2-GST fusion (Cisbio, 64CUS000AFPEB), and 3 μL of the mixed solution was added to the microplate. The resulting mixture was incubated at room temperature for 2.5 h. HTRF detection buffer ([…], 62SDBRDD) was used then to prepare a mixture of 5 μg/mL MAb Anti GST-XL665 (Cisbio, 61GSTXLA) and 0.045 μg/mL PAb Anti-phospho ATF2-K (Cisbio, 61P12KAZ), and 10 μL of the mixture was added to the plate to terminate the reaction. After incubation for about 12 h, the plate was read on a Perkin-Elmer Envision reader.

T1 sequence (P45983 whole entry): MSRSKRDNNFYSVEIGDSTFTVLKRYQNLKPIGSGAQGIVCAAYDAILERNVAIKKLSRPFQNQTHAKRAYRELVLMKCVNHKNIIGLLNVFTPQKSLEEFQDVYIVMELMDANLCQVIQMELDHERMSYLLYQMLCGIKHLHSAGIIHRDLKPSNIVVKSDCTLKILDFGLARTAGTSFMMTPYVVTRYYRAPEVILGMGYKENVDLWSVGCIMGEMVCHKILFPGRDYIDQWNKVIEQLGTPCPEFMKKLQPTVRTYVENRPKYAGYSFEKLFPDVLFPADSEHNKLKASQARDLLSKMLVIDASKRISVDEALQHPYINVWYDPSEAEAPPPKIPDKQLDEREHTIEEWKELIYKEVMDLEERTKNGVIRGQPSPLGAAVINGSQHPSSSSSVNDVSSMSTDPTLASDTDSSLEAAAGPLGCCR

SMILES	IC50 [1] [µM]	IC50 [2] [µM]
C[C@@H]1CC[C@@H](Nc2cc(NC3CCCC3)ncc2C(N)=O)C[C@H]1O [Compound T056, 6-(cyclopentylamino)-4-(((1R,3R,4R)-3-hydroxy-4-methylcyclohexyl)amino) nicotinamide]	> 1	0.5 to 1
C[C@@H]1CC[C@@H](Nc2cc(NC(C)(C)F)ncc2C(N)=O)C[C@H]1O [Compound T057, 6-((2-fluoropropan-2-yl)amino)-4-(((1R, 3R,4R)-3-hydroxy-4-methylcyclohexyl)amino)nicotinamide]	> 1	> 1
C[C@@H]1CC[C@@H](Nc2cc(NC3CC3)ncc2C(N)=O)C[C@H]1O [Compound T058, 6-(cyclopropylamino)-4-(((1R,3R,4R)-3-hydroxy-4-methylcyclohexyl)amino) nicotinamide]	> 1	> 1
C[C@@H]1CC[C@@H](Nc2cc(NC3CC3O)ncc2C(N)=O)C[C@H]1O (stereo partly drawn) [Compound T059, 4-(((1R,3R,4R)-3-hydroxy-4-methylcyclohexyl)amino)-6-((2-hydroxycyclopropyl)amino)nicotinamide]	> 1	> 1
C[C@@H]1CC[C@@H](Nc2cc(NC3C4C[C@H]43)ncc2C(N)=O)C[C@H]1O (stereo partly drawn) [Compound T060, 6-(((1R,2R)-bicyclo[1 1.0]butan-2-yl)amino)-4-(((1R,3R,4R)-3-hydroxy-4-methylcyclohexyl)amino)nicotinamide]	> 1	> 1
C[C@@H]1CC[C@@H](Nc2nc(NC(C)(C)C)ncc2[N+](=O)[O-])C[C@H]1O [Compound T062, (1R,2R,5R)-5-((2-(tert-butylamino)-5-nitropyrimidin-4-yl)amino)-2-methylcyclohex-1-ol]	> 1	> 1
C[C@@H]1CC[C@@H](Nc2nc(NC(C)(C)C)ncc2N)C[C@H]1O [Compound T063, (1R,2R,5R)-5-((5-amino-2-(tert-butylamino)pyrimidin-4-yl)amino)-2-methylcyclohexan-1-ol]	> 1	> 1
C#Cc1cnc(NC(C)(C)C)nc1N[C@@H]1CC[C@@H](C)[C@H](O)C1 [Compound T064, (1R,2R,5R)-5-((2-(ter-butylamino)-5-ethynylpyrimidin-4-yl)amino)-2-methylcyclohex-1-ol]	> 1	0.5 to 1
CC#Cc1cnc(NC(C)(C)C)nc1N[C@@H]1CC[C@@H](C)[C@H](O)C1 [Compound T065, (1R,2R,5R)-5-((2-(tert-butylamino)-5-(prop-1-yn-1-yl)pyrimidin-4-yl)amino)-2-methylcyclohexan-1-ol]	> 1	> 1
C=Cc1cnc(NC(C)(C)C)nc1N[C@@H]1CC[C@@H](C)[C@H](O)C1 [Compound T066, (1R,2R,5R)-5-((2-(tert-butylamino)-5-vinylpyrimidin-4-yl)amino)-2-methylcyclohex-1-ol]	> 1	> 1
CC(=O)c1cnc(NC(C)(C)C)nc1N[C@@H]1CC[C@@H](C)[C@H](O)C1 [Compound T067, 1-(2-(tert-butylamino)-4-(((1R,3R,4R)-3-hydroxy-4-methylcyclohexyl)amino)pyrimidin-5-yl)ethan-1-one]	0.1 to 0.5	0.1 to 0.5
C[C@@H]1CC[C@@H](Nc2nc(NC(C)(C)C)ncc2C(=O)C2CC2)C[C@H]1O [Compound T068, (2-(tert-butylamino)-4-(((1R,3R,4R)-3-hydroxy-4-methylcyclohexyl)amino)pyrimidin-5-yl)(cyclopropyl)methanone]	0.1 to 0.5	0.1 to 0.5
CCC(=O)c1cnc(NC(C)(C)C)nc1N[C@@H]1CC[C@@H](C)[C@H](O)C1 [Compound T069, 1-(2-(tert-butylamino)-4-(((1R,3R,4R)-3-hydroxy-4-methylcyclohexyl)amino)pyrimidin-5-yl)propan-1-one]	0.1 to 0.5	0.1 to 0.5
